A value given as a limit tells only on which side of the number the result lay.

The compound `CCN(CC)c1ccc2c(-c3ccc(C#Cc4ccccc4)cc3)cc(=O)oc2c1` returned a melting point of 136 to 138 °C.
As for `CCCSC1=Nc2cc(C(=O)O)ccc2SN1Cc1ccc(-c2ccccc2C#N)cc1`, the figure is 53 to 68 °C; as for `Cc1cccc(C)c1N(CCCc1cccnc1)C(=O)Cn1ccnc1C`, 89 to 90 °C.
Turning to `CCS(=O)(=O)Nc1cc(C)cc(Cc2c[nH]cn2)c1C`, the melting point was 167 to 169 °C.
Consider `O=S(=O)(Nc1n[nH]c(SCc2ccc(Oc3ccc(F)cc3)cc2)c1-c1ccccn1)c1c(Cl)cccc1Cl`, for which the melting point was in the range of 185 to 186 °C.
Then `Cc1cc(C(=O)O)ccc1Sc1ccc2c(c1)C(C)(C)CCC2(C)C`, with 195 to 196 °C; and `CC(C)C[C@H](NC(=O)c1ccc2c(c1)Nc1ccccc1S2)C(=O)N[C@H]1CCOC1OC(=O)N1CCOCC1` (some centres not stated), with 165 to 167 °C.
`O=S1CCN(CC2CN=C(c3cc4cccc(NS(=O)(=O)c5ccccn5)c4[nH]3)S2)CC1` (configuration not stated) had a melting point of 270 °C.
As for `COc1ccc2ccccc2c1-c1c(C)c2c(c(C)c1P(c1ccccc1)c1ccccc1)CCC2`, the figure is 166 °C; as for `COc1cc(NCCN(Cc2ccccc2)Cc2ccccc2)ccc1C(N)=O`, 136 to 138 °C; as for `C=CCOc1cc(OCc2ccccc2)ccc1O`, 62 °C.
Then `CCOC(=O)C(CO)NC(=O)C(CC(=O)O)NC(=O)CCNC(=O)c1ccc(C(=N)N)cc1` (configuration not stated), with 201 to 203 °C.
Then `Fc1ccc(-c2cc(C(F)(F)F)n[nH]2)c(F)c1`, with 157 to 158 °C; and `CC(=O)Nc1ccc2[nH]c(C(=O)N3CC(CCl)c4c3cc(N)c3ccccc43)cc2c1` (configuration not stated), with over 300 °C; and `CCOC(=O)C1C2CCC(=O)C21` (configuration not stated), with 36 to 38 °C.
In turn, `CCOP(=O)(/C=C/c1cn(-c2ccccc2)nc1OCc1ccc(OCc2nc(-c3cccc(C(=O)O)c3)oc2C)cc1)OCC` gave a melting point of 153 to 155 °C.
Then `Cc1ccc(F)cc1C(=O)Nc1ccc(C(=O)N2Cc3ccnn3Cc3ccccc32)cn1`, with 250 to 260 °C; and `Cc1cc(C)c2nc(NC3CCN(CCCO)CC3)n(Cc3nc(C)ccc3O)c2c1`, with 172 °C.
Then `Cc1cc(C(=O)C2=NOC(c3cc(Cl)cc(Cl)c3)(C(F)(F)F)C2)ccc1S(=O)(=O)NCc1ccccn1` (configuration not stated), with 57 to 58 °C; and `COCc1cc2c(N=C=S)cccc2cn1`, with 88 °C; and `N#Cc1c(N2CCN(C(=O)c3ccco3)CC2)c2cc(Cl)ccc2n(Cc2ccc(F)cc2)c1=O`, with 253 °C.
As for `OC1(CNc2c(Br)cnc3ccccc23)CCCCC1`, the figure is 130 to 132 °C; as for `Cn1c(C#N)ccc1-c1ccc2c(c1)C(C)(c1cccs1)OCC(=O)N2` (configuration not stated), 197 to 198 °C.
The compound `O=C1c2c(-c3ccccc3)c3cc(Cl)ccc3n2CCN1CCN1CCCC1` registered a melting point of 134 to 136 °C.
As for `CCOC(=O)C1=C(COCc2nnnn2CC(N)=O)NC(C)=C(C(=O)OC)C1c1ccccc1Cl` (configuration not stated), the figure is 97 to 100 °C; as for `CC(=NC(C#N)=C(N)C#N)c1ccco1`, 175 to 176 °C.
Then `CCCCOC(=O)C(C)(NC(=O)c1cc([N+](=O)[O-])cc([N+](=O)[O-])c1)C(C)C` (configuration not stated), with 110 to 113 °C; and `CCCc1c(OCCCS(=O)(=O)c2ccc(C(=O)CCC(=O)O)cc2F)ccc(C(C)=O)c1O`, with 154 to 156 °C.
In turn, `CN1C(=O)C2=C(c3ccccc3)N(C)C(=O)C2=C1c1ccccc1` registered a melting point of 236 to 238 °C.
In turn, `O=C(O)CN1CC(=O)NC1=NN=Cc1ccccc1` yielded a melting point of 218 to 222 °C.
`COC(=O)c1cc(Cl)ccc1OCc1ccccc1` returned a melting point of 54.5 to 55 °C.
Then `O=c1ccn(-c2cccc(C(F)(F)F)c2)nc1-c1ncnn1-c1ccccc1`, with 167 to 168 °C; and `COc1cc(OC)nc(Oc2cccc3c2C(=O)OC3F)n1` (configuration not stated), with 172 to 174 °C; and `NCCc1cc2c(-c3ccccc3)c(CC(=O)Nc3ccc(Cl)cc3C(F)(F)F)c(=O)oc2cc1Cl`, with 165 to 167 °C.
On to `CCCCCc1ocnc1C(=O)O`, for which the melting point was 84 to 85 °C.
Then `COCc1nc2c(N)cc(Br)cc2n1C`, with 138 to 140 °C; and `COC(=O)C1=C(C)Nc2ccccc2NC1c1ccccc1C(F)(F)F` (configuration not stated), with 190 to 192 °C; and `O=[N+]([O-])c1ccccc1COc1cc[nH]n1`, with 87 °C.
The compound `NS(=O)(=O)c1ccc(-c2cc(F)c(F)cc2-c2ccc3c(c2)OCO3)cc1` showed a melting point of 142 to 143 °C.
In turn, `CCC1(Cl)Cc2cc(OC(C)(C)C(=O)O)c(Cl)c(Cl)c2C1=O` (configuration not stated) gave a melting point of 164 to 165 °C.
As for `C=CCn1c(=O)c2c(nc(/C=C/c3cc(OC)c(OC(C)=O)c(OC)c3)n2C)n(CC=C)c1=O`, the figure is 220 to 221 °C.
As for `Cc1cc(C)n(CC(C)C)c(=O)c1C#N`, the melting point was 126 to 128 °C.
Consider `CCOC(=O)c1ncn2c1[C@@H]1CCCN1C(=O)c1c(Br)cccc1-2`, for which the melting point was in the range of 191 to 192 °C.
Then `O=S(=O)(c1ccc(Br)cc1)N1CCC2(C=Cc3ccccc32)CC1`, with 177 to 178 °C.
`CN1CSC(=Cc2cc(C(C)(C)C)c(O)c(C(C)(C)C)c2)C1=O` returned a melting point of 142 to 144 °C.
Then `COc1cc2oc(=O)c3c(c2cc1OC)CCN(Cc1ccccc1)C3`, with 189 to 191 °C.
As for `O=C(CN1C(=O)C2(COc3cc4c(cc32)CCO4)c2ccccc21)Nc1ccccc1F` (configuration not stated), the figure is 210 to 212 °C; as for `CCCc1nc(C=NNC(=S)SC)c(C)[nH]1`, 175 to 179 °C; as for `O=C1c2ccccc2C(=O)N1OC1CCCCCC1`, 110 to 112 °C.
`O=C1Nc2ccncc2C(=O)C1c1c(F)cccc1Cl` (configuration not stated) registered a melting point of 249 °C.
As for `O=c1[nH]nc2c3c(cccc13)N=C(CN1CCCNCC1)N2`, the figure is 147 to 149 °C; as for `O=CNCc1c[nH]c(=S)n1[C@H]1CCc2c(F)cc(F)cc2C1`, 245 to 246 °C; as for `CCN(Cc1ccccc1Oc1ccccc1)c1ccc(C(=O)O)cn1`, 170 to 172 °C.
The compound `Cc1nc(N2CCN(C)CC2)nc(N)c1-c1cc(Cl)cc(Cl)c1Cl` returned a melting point of 156 to 159 °C.
Then `CCSc1cn(C)cc(-c2cccc(C(F)(F)F)c2)c1=S`, with 136 to 138 °C; and `CCOC(=O)C1=C(N(C)C)N=C(C)C(C(=O)OC)C1c1cccc([N+](=O)[O-])c1` (configuration not stated), with 95 °C.
Compound `COc1cc(C=CC(=O)OC2CC3C(O)C(OC(=O)C=Cc4cc(OC)c(OC)c(OC)c4)C(C2)N3C)cc(OC)c1OC` (configuration not stated) displayed a melting point of 59 to 61 °C.
As for `O=C(Nc1c(OCc2ccccc2)cc(Br)cc1[N+](=O)[O-])C1CC1`, the figure is 191 °C; as for `CC(C)C1Cc2cc(C=O)sc2C1` (configuration not stated), under 50 °C.
As for `CCOCc1nc2c(N)nc3cc(OCc4ccccc4)ccc3c2n1CC1COC(C)(C)O1` (configuration not stated), the melting point is 186 to 187 °C.
Then `COc1ccccc1N1CCN(CC(O)CS(=O)c2ccc(F)cc2)CC1` (configuration not stated), with 164 to 165 °C; and `CC(=NOCC=Cc1ccccc1)C(=O)O`, with 89 to 91 °C; and `C=CCOc1cc(N2C(=O)C3=C(CCCC3)C2=O)ccc1Cl`, with 118 to 120 °C.
As for `COc1cc(OC)cc(N2CCC(c3c(N)nc(N)[nH]c3=O)CC2)c1`, the figure is over 250 °C; as for `COc1ccccc1-c1ccc(C[C@H](NC(=O)c2c(Cl)cccc2Cl)C(=O)O)cc1Cl`, 131 °C.
Turning to `Fc1cnc(Nc2cccnc2)nc1Nc1ccc2c(c1)OCCO2`, the melting point lay in the range of 251 to 253 °C.
In turn, `O=C(O)c1cn2c3c(cc(Cl)cc3c1=O)CCC2` gave a melting point of 282 to 286 °C.
Compound `CN1CCN(C(=O)c2ccc(N)cc2N)CC1` showed a melting point of 192 °C.
Then `CC(C)c1nnc2ccc(-c3ocnc3-c3c(F)cccc3F)cn12`, with 176 °C; and `Cc1ccccc1CC(=NC#N)NC(NC(=O)CCCc1cccs1)C(C)(C)C` (configuration not stated), with 154 to 155 °C; and `COC(=O)CC(=O)NC[C@H]1CN(c2ccc3c(c2)CCCc2cnoc2-3)C(=O)O1`, with 205 to 217 °C.
As for `CCOC(=O)Oc1cc2occ(C(=O)Cl)c(=O)c2cc1OC(=O)OCC`, the figure is 89 to 92 °C; as for `ClC1=NC(Cl)(C(Cl)(Cl)Cl)N=C1Cl`, 66 to 68 °C.
Then `CN(C)C=C1C(=O)N(c2ccccc2)C(=O)N1C`, with 131 to 133 °C.
Compound `CN(C)NC(=O)c1ccc(-c2ccc(Cl)cc2)o1` gave a melting point of 150 to 152 °C.
As for `COc1ccc(/C=C/C(=O)C2C(=O)CC(c3ccc(OC)cc3)C([N+](=O)[O-])C2C2CCCCC2)cc1` (configuration not stated), the figure is 203 to 205 °C; as for `CCCCS(=O)(=O)NC1Cc2ccc(C3=NNC(=O)C(c4ccccc4)C3)cc2C1` (configuration not stated), 216 to 217 °C; as for `O=C(NCc1ccc(F)c(F)c1)c1ccnc(N2CCN(Cc3cccnc3)C2=O)c1`, 178 to 180 °C.
In turn, `CC1Oc2ccc([N+](=O)[O-])cc2O1` (configuration not stated) returned a melting point of 84 to 95 °C.
Consider `Cc1ccc(S(=O)(=O)Nc2cc(C(=O)O)c3c(c2)C(C(=O)O)CCN3)cc1` (configuration not stated), for which the melting point is 221 to 223 °C.
As for `Cc1cccc(-c2nccc(NN)n2)c1`, the figure is 102 to 103 °C; as for `COc1cccc(S(=O)(=O)c2ccc3c(c2)[C@@H](Nc2ccnc(Cl)n2)[C@](C)(O)C(C)(C)O3)c1`, 228 to 230 °C.
As for `CNc1nc(-c2cccc(-c3cncc(-c4ccccc4)c3)c2)c2cc(OC)c(OC)cc2n1`, the figure is 200 to 202 °C; as for `Cc1n[nH]cc1-c1cnc2[nH]c(=O)n(CC3CCOCC3)c2n1`, 222 to 224 °C; as for `C=CCOc1ccc(C(=O)O[C@H]2CC[C@H](C(=O)CCCCCBr)CC2)cc1`, 56 °C.
`CC(C)CCc1nc2ccccn2c(=O)c1-c1ccc(Cl)cc1` registered a melting point of 146 to 149 °C.
For the compound `O=C(O)CNC(=O)[C@H]1CC[C@H](C(=O)N2CCN(C3CCNCC3)CC2)CC1`, the melting point is 260 to 270 °C.

Values taken from a melting point compilation (Tetko et al.; mined from patent text by program, amines drawn as free bases though some values may be those of a salt).
